Assay results published in patent publication US10662203B2, “Pyrido[2,3-b]indole compounds for the treatment and prophylaxis of bacterial infection” (Hoffmann-La Roche Inc., priority 2017, dated 2020).
≈ marks a conversion by molar mass, not a printed value.

What was measured:
[1] = Lyophilisation solubility assay (LYSA); format: physicochemical; details: phosphate buffer, pH 6.5, aqueous buffer, thermodynamic from solid, 0.05 M phosphate buffer, HPLC-UV
Summary of the method: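 Duplicate samples made from 10 mM DMSO stock. DMSO evaporated and the residue taken up in 0.05 M phosphate buffer, pH 6.5, stirred 1 h and shaken 2 h, then left overnight. Filtrate and its 1/10 dilution quantified by HPLC-UV.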

[2] = Cytotoxicity assay (HepG2, CellTiter-Blue cell viability); format: cell-based; details: human; HepG2 cells, 3 days treatment; "*": the detection limit; read-out: CC50
Summary of the method: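 HepG2 cells (1.2×10^4 per well) exposed to compounds for 3 days; viability then read by CellTiter-Blue fluorescence after 3 h at 37 °C. CC50 from four-parameter logistic fit.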

[3] = Single dose PK study (SDPK) in female CD-1 mouse; format: in vivo; details: MOUSE IV, 1.0 mg/kg-Solution; for clearance: female, CD-1, plasma, read-out: CL total
Description: Single Dose PK Study (SDPK) in Female CD-1 Mouse: The single dose PK in female CD-1 mouse was performed to assess compound's pharmacokinetic properties. One group of animals were dosed via bolus intravenous (IV) of the respective compound. Blood samples (approximately 30 μL) were collected via saphenous vein at 5 mins, 15 min, 30 min, 1 hr, 2 hr, 4 hr and 7 hr. For last time point (24 hr), samples were collected via cardiac puncture while the mouse was under anesthesia. Blood samples were placed into tubes containing EDTA-K2 anticoagulant (2 μL of 0.5M per tube) and centrifuged at 3000 rpm for 10 minutes at 4° C. within half an hour to separate plasma from the samples. Following centrifugation, plasma samples were stored in polypropylene tubes, quick frozen over dry ice and kept at −70±10° C. until LC/MS/MS analysis. The pharmacokinetic parameters were calculated using non-compartmental module of WinNonlin® Professional 6.4.

A. baumannii (ATCC17978) = test: 50% growth inhibitory concentration (IC50) determination assay; format: cell-based; details: Acinetobacter baumannii, ATCC17978, A. baumannii ATCC17978; Iso-Sensitest broth; 0.098 = detection limit
Summary of the method: (§1)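 Growth was tracked as optical density at 600 nm every 20 minutes for 16 h at 35±2° C, giving IC50 values. Inocula of ~5×10^5 CFU/mL in Iso-Sensitest broth faced two-fold compound dilutions spanning 50 to 0.097 μM final.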

S. aureus (ATCC29213) = test: as above; format: cell-based; details: Staphylococcus aureus, Iso-Sensitest broth, 0.098 = detection limit
Summary of the method: as §1

[4] = tested on: K. pneumoniae (ATCC10031); test: as above; format: cell-based; details: Klebsiella pneumoniae, Iso-Sensitest broth, 0.098 = detection limit
Summary of the method: as §1

[5] = tested on: multiple species and strains; test: Minimal inhibitory concentration (MIC) and MIC90 determination, broth microdilution (CLSI M07-A10); details: S9: P. aeruginosa ATCC BAA-2113
Description: Minimal Inhibitory Concentration (MIC) and MIC90 Determination:
The MIC of antibacterial compounds against multiple species and strains was determined using the broth microdilution method according to M07-A10 Clinical and Laboratory Standards Institute (CLSI) guidelines (CLSI (2015) Methods for dilution antimicrobial susceptibility tests for bacteria that grow aerobically; Approved Standard, Tenth Edition. CLSI Document M7-A10 (ISBN 1-56238-987-4). Wayne, Pa.: Clinical and Laboratory Standards Institute, 19087, USA.). In short, bacterial strain preparation was performed on D1 and D2. […] 5-10 well-isolated colonies of similar morphology were selected and re-streaked onto fresh agar plates using sterile loops and incubated for 20-24 hr at 35±2° C. Bacterial strains were subcultured two times to ensure fresh inoculums for MIC screening. […] Alternatively, 1-2 colonies were transferred into 500 μL of saline and OD600 was adjusted to ˜0.1 using an OD meter. Bacterial inoculum was diluted by 1:280 for Gram-positive strains and 1:400 for Gram-negative strains into corresponding medium broth (CAMHB, CAMHB+3% lysed horse blood, HTM) (e.g. 35.6 μL of inoculum into 10 mL of CAMHB or 25 μL of inoculum into 10 mL of CAMHB). […] Compound stock concentration=[(highest testing concentration)×100 μL/2 μL] (e.g. if the required highest testing concentration is 64 μg/mL in assay plates, stock concentration=64 μg/mL×100 μL/2 μL=3.2 mg/mL). […] of each well was transferred in a new MTP, which served as the test plate by subsequent inoculation. The bacterial suspension prepared above is dispensed at 98 μL/well within 15 minutes after preparation. Negative controls (lack of bacterial cells) and growth control wells (lack of compound) were included in all plates. MTPs were incubated for 18-24 hours at 35±2° C. in ambient air. The MIC was recorded and CFUs were calculated on Day 4. The assay plate was placed on the top of MIC reader, and the magnification mirror was adjusted to read each wells, recording growth status as raw data. Photo images of each assay plates were recorded using Q Count 530 (Spiral Biotech). The MIC value of each compound, expressed as […], was determined as the lowest concentration required for complete growth inhibition (no visible growth).

| Compound | solubility thermodynamic [1] | CC50 at 3 days [2] | AUC total [3] | clearance [3] | IC50 (A. baumannii (ATCC17978)) | IC50 (S. aureus (ATCC29213)) | IC50 [4] | MIC S9 [5] |
| --- | --- | --- | --- | --- | --- | --- | --- | --- |
| CNc1cc(F)c(F)c2c1[nH]c1ncc(-c3cnc4c(c3)c(=O)c(C(=O)O)cn4NC)c(N3C[C@H]4CCN(C)[C@H]4C3)c12 [Example 3.07A] | 20 µg/mL (≈ 34.8 µM) | > 100000 nM | 214.0 ng·h/mL | 77.4 mL/min/kg | 0.076 µM | < 0.098 µM | < 0.098 µM |  |
| CNc1cc(F)cc2c1[nH]c1ncc(-c3cnc4c(c3)c(=O)c(C(=O)O)cn4C)c(N3CC[C@H]4CN(C)C[C@H]43)c12 [Example 3.04A] | 485 µg/mL (≈ 896 µM) | 49500 nM | 241.6 ng·h/mL | 68.9 mL/min/kg | 0.035 µM | < 0.098 µM | < 0.098 µM | 6.77 |
| CNc1cc(F)c(F)c2c1[nH]c1ncc(-c3cnc4c(c3)c(=O)c(C(=O)O)cn4C)c(N3CC[C@H]4CN(C)C[C@H]43)c12 [Example 3.03A] | 137 µg/mL (≈ 245 µM) | 38400 nM | 249.6 ng·h/mL | 66.9 mL/min/kg | 0.039 µM | < 0.098 µM | < 0.098 µM | 1.749 |
| CNc1cc(F)c(C#N)c2c1[nH]c1ncc(-c3cnc4c(c3)c(=O)c(C(=O)O)cn4C)c(N3CC[C@H]4CN(C)CC43)c12 (some centres unmarked) [Example 1.274] | 118 µg/mL (≈ 208 µM) |  |  |  | 0.117 µM |  |  | 8.508 |
| CNc1cc(F)c(C#N)c2c1[nH]c1ncc(-c3cnc4c(c3)c(=O)c(C(=O)O)cn4NC)c(N3CC[C@H]4CN(C)CC43)c12 (some centres unmarked) [Example 1.275] |  |  |  |  | 0.281 µM |  |  | 4.348 |
| CNc1cc(F)c(F)c2c1[nH]c1ncc(-c3cnc4c(c3)c(=O)c(C(=O)O)cn4NC)c(N3CC[C@H]4CN(C)C[C@H]43)c12 [Example 3.01A, 6-[5,6-difluoro-8-(methylamino)-4-[(3aS,6aS)-5-methyl-2,3,3a,4,6,6a-hexahydropyrrolo[2,3-c]pyrrol-1-yl]-9H-pyrido[2,3-b]indol-3-yl]-1-(methylamino)-4-oxo-1,8-naphthyridine-3-carboxylic acid] | 264 µg/mL (≈ 459 µM) | 54100 nM | 195.4 ng·h/mL | 81.9 mL/min/kg | 0.034 µM | < 0.098 µM | < 0.098 µM | 1.796 |
| CNc1cc(F)c(F)c2c1[nH]c1ncc(-c3cnc4c(c3)c(=O)c(C(=O)O)cn4NC)c(N3CC[C@@H]4CN(C)C[C@@H]43)c12 [Example 3.01B, 6-[5,6-difluoro-8-(methylamino)-4-[(3aR,6aR)-5-methyl-2,3,3a,4,6,6a-hexahydropyrrolo[2,3-c]pyrrol-1-yl]-9H-pyrido[2,3-b]indol-3-yl]-1-(methylamino)-4-oxo-1,8-naphthyridine-3-carboxylic acid] | 265 µg/mL (≈ 461 µM) | 39400 nM | 156.1 ng·h/mL | 105 mL/min/kg | 0.56 µM | 0.168 µM | < 0.098 µM |  |
| CNc1cc(F)c(F)c2c1[nH]c1ncc(-c3cnc4c(c3)c(=O)c(C(=O)O)cn4C)c(N3CC4C(N(C)C)CO[C@@H]4C3)c12 (some centres unmarked) [Example 1.286] |  |  |  |  | 0.143 µM |  |  | 3.973 |
| CNc1cc(F)c(F)c2c1[nH]c1ncc(-c3cnc4c(c3)c(=O)c(C(=O)O)cn4C)c(N3CCC[C@H]3CN(C)C)c12 [Example 1.14] | 407 µg/mL (≈ 725 µM) | 29100 nM |  |  | 0.154 µM | < 0.098 µM | < 0.098 µM | 7.02 |
| CNc1cc(F)c(F)c2c1[nH]c1ncc(-c3cnc4c(c3)c(=O)c(C(=O)O)cn4C)c(N3CC[C@H]4CN(C)CC43)c12 (some centres unmarked) [Example 1.85] | 101 µg/mL (≈ 180 µM) | 35200 nM | 177.0 ng·h/mL | 94.8 mL/min/kg | 0.089 µM | < 0.098 µM | < 0.098 µM | 6.995 |
| CNc1cc(F)c(F)c2c1[nH]c1ncc(-c3cnc4c(c3)c(=O)c(C(=O)O)cn4NC)c(N3CC[C@H]4CN(C)CC43)c12 (some centres unmarked) [Example 1.189] | 255 µg/mL (≈ 444 µM) | 41200 nM |  |  | 0.095 µM | < 0.098 µM | < 0.098 µM | 4.304 |
| CNc1cc(F)cc2c1[nH]c1ncc(-c3cnc4c(c3)c(=O)c(C(=O)O)cn4NC)c(N3CC[C@H]4CN(C)C[C@H]43)c12 [Example 3.05A] | 535 µg/mL (≈ 961 µM) | 54500 nM | 356.4 ng·h/mL | 50.5 mL/min/kg | 0.055 µM | < 0.098 µM | < 0.098 µM | 6.957 |
| CNc1cc(F)cc2c1[nH]c1ncc(-c3cnc4c(c3)c(=O)c(C(=O)O)cn4CC(C)O)c(N3CCOCC3)c12 (centres unmarked) [Example 1.53] |  | > 100000 nM | 211.3 ng·h/mL | 83.5 mL/min/kg | 0.764 µM | < 0.098 µM | < 0.098 µM |  |
| CNc1cc(F)cc2c1[nH]c1ncc(-c3cnc4c(c3)c(=O)c(C(=O)O)cn4NC)c(N3CC[C@H]4CN(C)CC43)c12 (some centres unmarked) [Example 1.86] | > 805 µg/mL | 43400 nM | 194.1 ng·h/mL | 86.5 mL/min/kg | 0.175 µM | 0.15 µM | < 0.098 µM |  |
| CNc1cc(F)c(C#N)c2c1[nH]c1ncc(-c3cnc4c(c3)c(=O)c(C(=O)O)cn4C)c(N3CC[C@H]4CN(C)C[C@H]43)c12 [Example 1.298] |  |  | 274.0 ng·h/mL | 62.7 mL/min/kg |  |  |  | 17.016 |
